Here are results for 18 compounds from patent publication US8044074B2, “Substituted heterocycles, their use as medicament, and pharmaceutical preparations comprising them” (Sanofi-Aventis, priority 2005, dated 2011).

The target of one test is T1, Human Kv1.5 channels (Homo sapiens, UniProt P22460).
T1 construct: expressed in transfected cells; host or cells: Xenopus laevis oocytes (injection of RNA synthesized in vitro)
T1 sequence (P22460 whole entry): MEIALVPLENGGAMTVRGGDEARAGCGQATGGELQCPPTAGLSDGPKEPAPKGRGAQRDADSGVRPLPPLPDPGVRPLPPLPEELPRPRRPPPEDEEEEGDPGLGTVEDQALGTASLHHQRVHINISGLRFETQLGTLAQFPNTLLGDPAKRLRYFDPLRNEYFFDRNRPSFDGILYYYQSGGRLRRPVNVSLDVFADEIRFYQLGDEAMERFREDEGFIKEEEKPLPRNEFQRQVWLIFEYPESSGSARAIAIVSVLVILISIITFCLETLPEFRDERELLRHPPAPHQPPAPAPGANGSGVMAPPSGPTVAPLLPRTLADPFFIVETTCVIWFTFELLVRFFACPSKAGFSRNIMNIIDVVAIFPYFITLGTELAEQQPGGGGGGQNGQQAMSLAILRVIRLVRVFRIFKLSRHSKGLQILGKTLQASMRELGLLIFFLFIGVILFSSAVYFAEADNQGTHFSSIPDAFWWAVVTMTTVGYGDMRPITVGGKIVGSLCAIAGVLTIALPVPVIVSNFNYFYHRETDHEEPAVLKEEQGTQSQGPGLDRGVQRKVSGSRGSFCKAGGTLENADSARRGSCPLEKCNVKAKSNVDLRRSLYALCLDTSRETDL
The test can be described thus: Activity on the Kv1.5 channel, two-microelectrode voltage clamp on xenopus oocytes. The settings on record: human Kv1.5 expressed in Xenopus laevis oocytes; percent inhibition of control current fitted with Hill equation; room temperature; read-out: Kv1.5 IC-50. The format is cell-based. On the procedure: Determination of the Activity on the Kv1.5 Channel
Human Kv1.5 channels were expressed in xenopus oocytes. For this purpose, firstly oocytes were isolated from Xenopus laevis and defolliculated. Kv1.5-encoding RNA synthesized in vitro was then injected into these oocytes. After Kv1.5 protein expression for 1-7 days, Kv1.5 currents were measured on the oocytes using the two-microelectrode voltage clamp technique. The Kv1.5 channels were in this case usually activated with voltage jumps lasting 500 ms to 0 mV and 40 mV. A solution of the following composition flowed through the bath: NaCl 96 mM, KCl 2 mM, CaCl2 1.8 mM, MgCl2 1 mM, HEPES 5 mM (titrated to pH 7.4 with NaOH). These experiments were carried out at room temperature. The following were employed for data acquisition and analysis: Geneclamp amplifier (Axon Instruments, Foster City, USA) and MacLab D/A converter and software (ADinstruments, Castle Hill, Australia). The substances of the invention were tested by adding them in various concentrations to the bath solution. The effects of the substances were calculated as percent inhibition of the Kv1.5 control current which was obtained when no substance was added to the solution. The data were then extrapolated using the Hill equation in order to determine the inhibitory concentrations IC50 for the respective substances.
Take `O=c1ccccn1[C@H](c1ccccc1)[C@H](OCC1CC1)c1ccccc1` (racemic) [Example 1, 1R′,2R′-1-(2-Cyclopropylmethoxy-1,2-diphenylethyl)-1H-pyridin-2-one]: the IC50 was determined as 0.38 µM.

As for `COc1ccc([C@@H](OCC2CC2)[C@H](c2ccc(F)cc2)n2ccccc2=O)cc1` (racemic) [Example 2, 1R′,2S′-1-[2-Cyclopropylmethoxy-1-(4-fluorophenyl)-2-(4-methoxy-phenyl)ethyl]-1H-pyridin-2-one], the IC50 was found to be 1.3 µM.

In the case of `O=c1ccc(F)cn1C(c1ccccc1)C(OCC1CC1)c1ccccc1` (racemic) [Example 3, 1-(2-Cyclopropylmethoxy-1,2-diphenylethyl)-5-fluoro-1H-pyridin-2-one], the IC50 was 0.78 µM.

Turning to `O=c1cccnn1C(c1ccccc1)C(OCC1CC1)c1ccc(Cl)cc1` (racemic) [Example 4, 2-[2-(4-Chlorophenyl)-2-cyclopropylmethoxy-1-phenylethyl]-2H-pyridazin-3-one], the IC50 stood at 1.05 µM.

Consider `N#Cc1ccc(O[C@H](c2ccc(F)cc2)[C@@H](c2ccc(F)cc2)n2cc(F)ccc2=O)cc1` (racemic) [Example 5, 1R′,2R′-5-Fluoro-1-(2-p-cyanophenoxy-1,2-di-p-fluorophenylethyl)-1H-pyridin-2-one], for which the IC50 fell in the range of 20 to 50 µM.

With `O=c1ccc(F)cn1C(c1ccc(F)cc1)C(OC1CC1)c1ccc(F)cc1` (racemic) [Example 6, 1-[2-Cyclopropoxy-1,2-bis-(4-fluorophenyl)ethyl]-5-fluoro-1H-pyridin-2-one], the IC50 was found to be 6.48 µM.

As for `O=c1ccccn1C(c1ccccc1)C(OCC1CC1)c1ccc(Cl)cc1` (racemic) [Example 7, 1-[2-(4-Chlorophenyl)-2-cyclopropylmethoxy-1-phenylethyl]-1H-pyridin-2-one], the IC50 is 0.18 µM.

On to `O=c1ccccn1[C@H](c1ccc(F)cc1)[C@H](OCC1CC1)c1ccc(F)cc1` (racemic) [Example 8, 1R′,2R′-1-[2-Cyclopropylmethoxy-1,2-bis(4-fluorophenyl)ethyl]-1H-pyridin-2-one], for which the IC50 was determined as 0.33 µM.

For `O=c1ccccn1[C@@H](c1ccc(F)cc1)[C@H](OCC1CC1)c1ccc(F)cc1` (racemic) [Example 9, 1R′,2S′-1-[2-Cyclopropylmethoxy-1,2-bis-(4-fluorophenyl)ethyl]-1H-pyridin-2-one], the IC50 is 0.41 µM.

In the case of `O=c1ccccn1C(c1ccc(F)cc1)C(OCC1CC1)c1ccc(Br)cc1` (racemic) [Example 10, 1-[2-(4-Bromophenyl)-2-cyclopropylmethoxy-1-(4-fluorophenyl)ethyl]-1H-pyridin-2-one], the IC50 was 0.87 µM.

With `N#Cc1ccc(C(OCC2CC2)C(c2ccc(F)cc2)n2ccccc2=O)cc1` (racemic) [Example 11, 4-[1-Cyclopropylmethoxy-2-(4-fluorophenyl)-2-(2-oxo-2H-pyridin-1-yl)ethyl]benzonitrile], the IC50 amounted to 2.03 µM.

As for `O=c1ccc(F)cn1[C@H](c1ccccc1)[C@H](OCC1CC1)c1ccccc1` (racemic) [Example 12, 1R′,2R′-1-(2-Cyclopropylmethoxy-1,2-diphenylethyl)-5-fluoro-1H-pyridin-2-one], the IC50 came out at 1.47 µM.

In the case of `COc1ccc(CO[C@H](c2ccc(OC)cc2)[C@@H](c2ccc(F)cc2)n2ccccc2=O)cc1` (racemic) [Example 13, 1R′,2R′-1-[1-(4-Fluorophenyl)-2-(4-methoxybenzyloxy)-2-(4-methoxyphenyl)ethyl]-1H-pyridin-2-one], the IC50 came to 4.48 µM.

For the compound `O=c1ccccn1C(c1ccc(F)cc1)C(OCC1CC1)c1ccc(F)cc1` (racemic) [Example 14, 1-[2-Cyclopropylmethoxy-1,2-bis-(4-fluorophenyl)ethyl]-1H-pyridin-2-one], the IC50 was found to be 1.4 µM.

In the case of `N#Cc1ccc(COC(c2ccc(Cl)cc2)C(c2ccccc2)n2ccccc2=O)cc1` (racemic) [Example 15, 4-[1-(4-Chlorophenyl)-2-(2-oxo-2H-pyridin-1-yl)-2-phenylethoxymethyl]benzonitrile], the IC50 was determined as 2.51 µM.

Take `O=c1ccc(F)cn1C(c1ccc(F)cc1)C(OCC1CC1)c1ccc(F)cc1` (racemic) [Example 16, 1-[2-Cyclopropylmethoxy-1,2-bis-(4-fluorophenyl)ethyl]-5-fluoro-1H-pyridin-2-one]: the IC50 was 4.56 µM.

In the case of `COc1ccc([C@@H](OCC2CC2)[C@@H](c2ccc(F)cc2)n2ccccc2=O)cc1` (racemic) [Example 17, 1R′,2R′-1-[2-Cyclopropylmethoxy-1-(4-fluorophenyl)-2-(4-methoxyphenyl)ethyl]-1H-pyridin-2-one], the IC50 was 1.83 µM.

For the compound `COc1ccc(CO[C@H](c2ccc(OC)cc2)[C@H](c2ccc(F)cc2)n2ccccc2=O)cc1` (racemic) [Example 18, 1R′,2S′-1-[1-(4-Fluorophenyl)-2-(4-methoxybenzyloxy)-2-(4-methoxyphenyl)ethyl]-1H-pyridin-2-one], the IC50 came to 2.69 µM.

Another test concerns the target Human TASK-1 channels (UniProt O14649). The test can be described thus: Activity on the TASK-1 channel, two-microelectrode voltage clamp on xenopus oocytes. To be noted: TASK-1 expressed in Xenopus laevis oocytes; percent inhibition of control current fitted with Hill equation; room temperature; read-out: mTask-1 IC-50. The format is cell-based. On the procedure: Determination of the Activity on the TASK-1 Channel
Human TASK-1 channels were expressed in xenopus oocytes. For this purpose, firstly oocytes were isolated from Xenopus laevis and defolliculated. TASK-1-encoding RNA synthesized in vitro was then injected into these oocytes. After TASK-1 protein expression for 2 days, TASK-1 currents were measured on the oocytes using the two-microelectrode voltage clamp technique. The TASK-1 channels were in this case usually activated with voltage jumps lasting 250 ms to 40 mV. A solution of the following composition flowed through the bath: NaCl 96 mM, KCl 2 mM, CaCl2 1.8 mM, MgCl2 1 mM, HEPES 5 mM (titrated to pH 7.4 with NaOH). These experiments were carried out at room temperature. The following were employed for data acquisition and analysis: Geneclamp amplifier (Axon Instruments, Foster City, USA) and MacLab D/A converter and software (ADinstruments, Castle Hill, Australia). The substances of the invention were tested by adding them in various concentrations to the bath solution. The effects of the substances were calculated as percent inhibition of the TASK-1 control current which was obtained when no substance was added to the solution. The data were then extrapolated using the Hill equation in order to determine the half-maximum inhibitory concentrations (IC50) for the respective substances.
Consider `O=c1ccccn1[C@@H](c1ccc(F)cc1)[C@H](OCC1CC1)c1ccc(F)cc1` (racemic) [Example 9, 1R′,2S′-1-[2-Cyclopropylmethoxy-1,2-bis-(4-fluorophenyl)ethyl]-1H-pyridin-2-one], for which the IC50 is 3.1 µM.
